The text below walks through data of PMC5117135 (ACS Chemical Biology, 2016).

Series [1] has as its system HHQ and PQS quinolone production in P. aeruginosa strain PA14. Nature of the series: Inhibition of HHQ and PQS quinolone production, LC-MS/MS quantitation. In kind it is cell-based, Pseudomonas aeruginosa. Particulars: dose and time course over 24 h.
Another series has as its system P. aeruginosa PA14. Description: Compound accumulation, LC-MS/MS quantitation of lysate. Particulars: 1000 μM extracellular, 30 min. Type of series: cell-based, Pseudomonas aeruginosa.
In the next series the test system is MvfR. Particulars: binding to and activation of MvfR; cited from earlier work.
The next series deals with PqsA. As to conditions: read-out: Km as PqsA substrate; cited from earlier work.

Consider `Nc1cccc(F)c1C(=O)O` [6FABA, 6-Fluoroanthranilate], for which the “lowest concentration that inhibited or delayed quinolone production” value in series [1] was 100 µM. The “penetration relative to the extracellular concentration applied” value in the series on P. aeruginosa PA14 was 2–3%. Moreover, the intracellular concentration in the series with P. aeruginosa PA14 (PA14 in LB, OD600 ≈ 0.5, calculated based on CFU) is 20 to 30 µM. In the case of `CCCCCCCc1nc2ccccc2c(O)c1O` [PQS, 3,4-dihydroxy-2-heptylquinoline], the “potency on MvfR relative to HHQ” value with MvfR was 100 fold. One may read the Km as the concentration of substrate that gives half-maximal velocity. With `O=C(O)c1ccccc1` [benzoate], the Km with PqsA is 150 µM. Consider `Nc1ccccc1C(=O)O` [anthranilate], for which the Km in the series with PqsA was 8 µM.
